Experimental data taken from US11059878B2, “Therapeutic targeting of SET1B/compass pathway for treating cancers” (Northwestern University, priority 2016, dated 2021).

How the values were obtained:
[1] = tested on: MDA-MB-231, MDA-MB-468, and LM2 cells; assay: Colony formation of triple-negative breast cancer lines, crystal violet staining; assay type: cell-based, human
Protocol: FIG. 6. Targeting AdipoR1 signaling in human TNBC. A) MDA-MB-231, MDA-MB-468 and MCF7 cells were infected with lentiviruses inducibly expressing either GFP or GFP-ADIPOR1. After neomycin selection, the stably transfected cells were treated with DMSO or doxycycline (DOX). The induced GFP or GFP-AdipoR1 was determined by western blot in three cell lines, n=3. B) The proliferation ability of GFP or GFP-ADIPOR1 inducible cell lines were determined by cell counting, n=3, Student's t test was used for statistical analysis. **P<0.01; *P<0.05. Error bars represent sd. C) The GFP or GFP-ADIPOR1 inducible cell lines were seeded in 6-well plates at the concentration of 4×10^4 living cells per well. The cells were then treated with DMSO or doxycycline. The cell survival was shown six days after doxycycline treatment by crystal violet staining. D) Quantification of crystal violet staining was determined as described in materials section. n=4, Student's t test was used for statistical analysis. **P<0.01; *P<0.05. Error bars represent sd. […] F) Quantification of crystal violet staining was determined as described in materials section. n=4, Student's t test was used for statistical analysis. **P<0.01; *P<0.05. […] They were treated with either PBS or AdipoRon (50 mg/kg) for 10 times, and the tumor size (G) and animal survival (H) was monitored. Tumor growth was measured two weeks after inoculation (n=7). […]

SET1B = SET1B protein level by western blot after AdipoRON treatment; assay type: cell-based, human; conditions: MDA-MB-231 cells, various concentrations for 24 hours
Protocol: FIG. 13. Depletion of AdipoR1 by CRISPR-CAS9 partially rescued cell death induced by SET1B depletion. A) Design of CRIPSR-Cas9 targeting ADIPOR1 gene locus. B) PCR was performed for genotyping of AdipoR1 wildtype and deleted cells. C) Total RNA was extracted from AdipoR1-WT and AdipoR1-KO cells and subjected to RNA-seq, three replicates. Representative tracks of AdipoR1 gene are shown. D) SET1B was further knocked down in ADIPOR1-WT and ADIPOR1-KO cells, respectively. After puromycin selection for 48 hours, 1×10^5 cells were seeded in 6-well plate, the cell viability of SET1B knocked down cells was determined by cell counting. E) The cells from panel C were seeded in 6-well plate (1×10^4) and grown for one week before crystal violet staining. F) Quantification of crystal violet staining was determined as described in materials section. n=4, Student's t test was used for statistical analysis. **P<0.01; *P<0.05. Error bars represent sd. […] H) Cell morphology of GFP or GFP-AdipoR1 inducible cell lines after DMSO or Dox treatment, n=3. I) MCF7 cells were seeded in 6-well plates at the concentration of 500 cells per well. The cells were treated with either DMSO or AdipoRON (10 μM) for three weeks, and the colonies were stained with crystal violet. J) MDA-MB-231 cells were treated with various concentrations of AdipoRON for 24 hours. The protein level of SET1B was determined by western blot. […]

LM2 cells = assay: LM2 cell fat pad xenograft in nude mice, treatment assay; assay type: in vivo
Protocol: FIG. 6. Targeting AdipoR1 signaling in human TNBC. A) MDA-MB-231, MDA-MB-468 and MCF7 cells were infected with lentiviruses inducibly expressing either GFP or GFP-ADIPOR1. After neomycin selection, the stably transfected cells were treated with DMSO or doxycycline (DOX). The induced GFP or GFP-AdipoR1 was determined by western blot in three cell lines, n=3. B) The proliferation ability of GFP or GFP-ADIPOR1 inducible cell lines were determined by cell counting, n=3, Student's t test was used for statistical analysis. **P<0.01; *P<0.05. Error bars represent sd. C) The GFP or GFP-ADIPOR1 inducible cell lines were seeded in 6-well plates at the concentration of 4×10^4 living cells per well. The cells were then treated with DMSO or doxycycline. The cell survival was shown six days after doxycycline treatment by crystal violet staining. D) Quantification of crystal violet staining was determined as described in materials section. n=4, Student's t test was used for statistical analysis. **P<0.01; *P<0.05. Error bars represent sd. E) MDA-MB-231, MDA-MB-468, and LM2 cells were seeded in 6-well plates at the concentration of 200 cells per well. […] F) Quantification of crystal violet staining was determined as described in materials section. n=4, Student's t test was used for statistical analysis. **P<0.01; *P<0.05. […] They were treated with either PBS or AdipoRon (50 mg/kg) for 10 times, and the tumor size (G) and animal survival (H) was monitored. Tumor growth was measured two weeks after inoculation (n=7). […]
FIG. 14. […] They were treated with either PBS or AdipoRon (50 mg/kg and 100 mg/kg, respectively) for 10 times, and the tumor size was monitored. Tumor growth was measured two weeks after inoculation (n=8). […]
Animal experiments. […] Tumor growth was monitored every other day two weeks after inoculation. […] They were treated with either PBS or AdipoRon (50 mg/kg) for 10 times, and the tumor size (G) and animal survival (H) was monitored. Tumor growth was measured two weeks after inoculation.

[2] = mice treated with 50 mg/kg AdipoRon; cited from earlier work
[3] = cited from earlier work

O=C(COc1ccc(C(=O)c2ccccc2)cc1)NC1CCN(Cc2ccccc2)CC1 [AdipoRon]
anti-tumor effect in vitro ([1]; 10 μM): dramatic anti-tumor effect | colony formation ability ([1]; AdipoRON 10 μM for three weeks, multiple triple-negative breast cancer lines, 200 cells per well): significantly inhibited | SET1B protein level (SET1B): does not affect | drug effect (tumor size) by intraperitoneal injection (LM2 cells; intraperitoneal injection, 50 mg/kg and 100 mg/kg, 10 times): consistent result | tumor size / tumor growth (LM2 cells; oral 50 mg/kg, started 12 days after transplantation): significantly reduced | animal survival / lifespan (LM2 cells; oral 50 mg/kg, started 12 days after transplantation, 50 mg/kg): significantly increased | plasma concentration [2]: 11.6 µM | toxicity in vivo [3]: low toxicity
